From publication PMC12057046, “Elucidation of short linear motif-based interactions of the MIT and rhodanese domains of the ubiquitin-specific protease 8” (Biology Direct, 2025)

molecular target: T1, USP8 Rhod domain (Homo sapiens, UniProt P40818); assay: Peptide-phage display-based deep mutational scanning (DMS), USP8 Rhod domain; format: binding; conditions: PSSM, library USP8_DMS, days 2,3; position 7
T1 construct: USP8 Rhod (174–317) (UniProt: P40818); GST (cleaved yes); made in house; host or cells: Escherichia coli BL21-Gold (DE3)
T1 sequence (P40818 174-317): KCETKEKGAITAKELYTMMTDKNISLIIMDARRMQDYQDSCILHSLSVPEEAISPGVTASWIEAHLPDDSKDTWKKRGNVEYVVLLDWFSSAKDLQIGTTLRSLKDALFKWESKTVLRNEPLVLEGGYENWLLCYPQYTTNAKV

For “KIAA1614_Q5VZ46_569_584 G7E (MERVLGELSSPLRLLP; UniProt Q5VZ46 569-584, looked up, variant G7E)”, the “enrichment_relative_to_wt at position 7 (wt G)” value was 1.36.

“KIAA1614_Q5VZ46_569_584 G7E (MERVLGELSSPLRLLP; UniProt Q5VZ46 569-584, looked up, variant G7E)” was tested, and the “proportion of amino acid at position 7 (wt G)” value was 0.02.

same assay, conditions: ProP-PD DMS, bait USP8_Rhodanese__P40818_174_317; pair wild-type GMERVLGGLSSPLRLL (wt_00013) vs mutant; positive where wild-type fraction is higher, negative where mutant fraction is higher

Point of comparison: GMERVLGGLSSPNRLL, hit_pair_ratio 321.97. Against it:
- GMERVLGGLSSPFRLL — lower, 65.83
- GMERVLGGHSSPLRLL — lower, 49.95
- GMERVLGGLSSPMRLL — lower, 7.90
- GMERVLGGLSNPLRLL — lower, -9.56
- GMERVLGGLSTPLRLL — lower, 2.98

same assay, conditions: ProP-PD pairs, bait USP8_Rhodanese__P40818_174_317; wild-type/mutant pair, wild type KIAA1614 569-584 GMERVLGGLSSPLRLL (wt_00013)

Point of comparison: GMERVLPGLSSPLRLL, hit_pair_ratio 131.67. Against it:
- GMERVLGVLSSPLRLL — lower, 14.78
- GMHRVLGGLSSPLRLL — lower, 16.95
- GMERVTGGLSSPLRLL — lower, 40.25
- GMERMLGGLSSPLRLL — lower, -1.32
- KMERVLGGLSSPLRLL — lower, 10.10
- GFERVLGGLSSPLRLL — lower, 1.56

same assay, conditions: bait USP8_Rhodanese__P40818_174_317; wild-type/mutant pair ratio of averaged fractions; negative values where mutant fraction is higher

Point of comparison: GLALWEAKMKQLAEMA, hit_pair_ratio 12.23. Against it:
- GLALWEAKMKQSAERA — higher, 1107.01
- GLALWEAKMQQLAERA — higher, 31.63
- AMERVLGGLSSPLRLL — lower, -9.71
- GLALWEAKMKALAERA — higher, 133.35
- GLALWEAKMKQLYERA — higher, 195.90
- SMERVLGGLSSPLRLL — lower, -2.25
- GLALWEAKMKQLAERG — higher, 73.80
- GLALWEAKMKQLAFRA — higher, 24.07
- GLALWEAKMKDLAERA — lower, -1.51
- GLALWEAKMAQLAERA — lower, -3.11
- GLALWEAKMKQLAGRA — higher, 14.06

same assay, conditions: wild type/mutant pair; bait USP8_Rhodanese__P40818_174_317; vs hit_library_peptide_wt GLALWEAKMKQLAERA; negative where mutant fraction exceeds wild type; ProP-PD pairs (sheet S7.B)

Point of comparison: GLAQWEAKMKQLAERA, hit_pair_ratio 10.90. Against it:
- GLSLWEAKMKQLAERA — higher, 33.04
- GLKLWEAKMKQLAERA — higher, 369.00
- GLALWFAKMKQLAERA — higher, 553.50
- GLAGWEAKMKQLAERA — higher, 208.81
- GLALWEQKMKQLAERA — lower, -1.30
- GLALWGAKMKQLAERA — higher, 24.44

system: USP8 MIT domain; assay: Peptide-phage display-based deep mutational scanning (DMS), USP8 MIT domain; format: binding, human; conditions: bait USP8_MIT__P40818_1_142; EFCAB12 (Q6NXP0) 2-17; pair of mutant with wild-type wt_00016 (MDDDYEAYHSLFLSLL); sheet S3.B_ProP-PD_pairs
Experimental: The residues of these 16 amino acid-long wild-type peptides were substituted to all natural amino acid residues, except cysteine, in all positions (Supplementary Table S2A). The designed peptide sequences were reverse-translated to oligonucleotides optimized to the codon usage of E. coli. The required flanking regions (5´[…] and 3´[…]) were added for library construction. The library was generated as previously described.
Four rounds of phage selections were carried out using the second generation human disorderome library or the constructed deep mutational scanning library. At least three individual replicates were used for each bait protein. 10 µg of GST-tagged proteins or GST control (diluted in PBS from the stock of proteins kept in the purification elution buffer) were immobilized in 100 µL PBS on a 96-well MaxiSorp (Nunc) plate overnight at 4 °C. The plates were incubated with blocking buffer (with 0.5% BSA in PBS) for 1 h at 4 °C followed by washing with 0.05% Tween 20 in PBS four times. The naïve phage library (10^11 CFU) was diluted in 1/5th volume PEG/NaCl (20% PEG-8000, 0.4 M NaCl) and 1X PBS, incubated on ice for 10 min and centrifuged at 10,000 [drawing 3] g for 10 min. The pellet was resuspended in the volume of PBS (100 µL/ well). The GST-coated control plate was incubated with 100 µL library per well in PBS for 1 h at 4 °C to remove non-specific binders. The supernatant was transferred to the target wells and incubated for 2 h at 4 °C. The wells were washed five times with 0.05% Tween 20 in PBS and the bound phages were eluted with 100 µL per well log-phase E. coli OmniMAX by incubating at 37° C while shaking. After 30 min, M13KO7 helper phages were added and incubated for an additional 45 min. The bacterial cultures were transferred to 1 mL 2YT supplemented with 100 µg/mL carbenicillin, 30 µg/mL kanamycin and 0.3 mM IPTG and grew overnight at 37 °C while shaking. The following day the cultures were centrifuged for 10 min at 2,000 [drawing 4] g, 4 °C. 1/10th volume of 10 [drawing 5] PBS was added to adjust the pH and heated at 65 °C for 10 min. The phage pools from each round were used as in-phages for the next round of selections.
The samples were prepared for NGS as previously described. Peptide-coding regions of the enriched phage pools were amplified and barcoded using Phusion High-Fidelity PCR Master Mix (Thermo Fisher) for 22 cycles and confirmed by 2% agarose gel electrophoresis. The PCR products were normalized with 25 µL Mag-bind Total Pure NGS beads (Omega Biotek) and 10 µL of each eluted sample (Qiagen Elution Buffer) was pooled and cleaned-up with a PCR purification kit (Qiagen). The PCR product was confirmed by 2% agarose electrophoresis and the band was extracted with QIAquick Gel extraction Kit (Qiagen) and eluted with 30 µL TE buffer. The dsDNA was quantified using QuantiT PicoGreen dsDNA Assay Kit (Thermo Fisher) and sent for NGS (Illumina MiSeq v3, 1 × 150 bp read setup, 20% PhiX, NGI SciLifeLab facility, Sweden). The NGS data were demultiplexed, adapter regions were trimmed and sequences with an average quality of at least 20 were translated to peptide sequences. The NGS data were analysed using custom Python scripts. The total read NGS counts for each selection experiment of each peptide sequence were compiled and annotated in PepTools (https://slim.icr.ac.uk/tools/peptools/). Since ProP-PD is in essence a competition assay, the possibility of the input phage library influencing the selection outcome was explored. For this, the Pearson correlation coefficient, p-value and coefficient of determination were calculated for all peptide NGS count fractions in the library coverage vs. in the selections results (Supplementary Fig. S7; Supplementary Table S2B; Supplementary Table S3B; Supplementary Table S7B). Pearson correlation coefficient and p-value were calculated using Python’s SciPy library. […]

Point of comparison: MDDDYLAYHSLFLSLL [mut_04418], hit_pair_ratio 84.82. Against it:
- MDDDAEAYHSLFLSLL [mut_04393] — lower, 42.41
- MDDSYEAYHSLFLSLL [mut_04388] — lower, 4.76
- MDDHYEAYHSLFLSLL [mut_04379] — lower, 28.27
- MDDDYPAYHSLFLSLL [mut_04421] — lower, 1.34
- MDWDYEAYHSLFLSLL [mut_04373] — lower, 2.57
- MDDDYELYHSLFLSLL [mut_04436] — lower, 7.38
- MDTDYEAYHSLFLSLL [mut_04371] — higher, 112.94
- HDDDYEAYHSLFLSLL [mut_04326] — lower, 42.37
- MDDYYEAYHSLFLSLL [mut_04392] — lower, 56.39
- MDDDYESYHSLFLSLL [mut_04442] — lower, 37.68
- MDDDYEIYHSLFLSLL [mut_04434] — lower, 18.85
- MKDDYEAYHSLFLSLL [mut_04345] — lower, 25.99
- MDDQYEAYHSLFLSLL [mut_04386] — lower, 42.28
- MDDDGEAYHSLFLSLL [mut_04397] — lower, 12.55
- MDDDVEAYHSLFLSLL [mut_04409] — higher, 337.92
- PDDDYEAYHSLFLSLL [mut_04331] — lower, 10.25
- MDMDYEAYHSLFLSLL [mut_04365] — the same, 84.82
- IDDDYEAYHSLFLSLL [mut_04327] — lower, 43.89
- MDDDKEAYHSLFLSLL [mut_04400] — higher, 168.96
- MDDDYYAYHSLFLSLL [mut_04428] — lower, 1.20
- MDDGYEAYHSLFLSLL [mut_04378] — lower, 3.46
- MDDDLEAYHSLFLSLL [mut_04401] — higher, 337.92
- MVDDYEAYHSLFLSLL [mut_04354] — lower, 6.06
- WDDDYEAYHSLFLSLL [mut_04337] — lower, 1.74

same assay, conditions: bait USP8_MIT__P40818_1_142; MLPH 482-497; ratio of averaged fractions of wild-type/mutant peptide pair, larger over smaller (direction to be read from the two fractions)

Point of comparison: SEVSDIESRIAALREA, hit_pair_ratio 7.79. Against it:
- SEVSDIESRIAALRAM — higher, 108.17
- SEVSDIESRQAALRAA — lower, 2.60
- SEVNDIESRIAALRAA — the same, 7.79
- SEVSDIEMRIAALRAA — lower, 7.10
- SEVSDISSRIAALRAA — lower, 1.56
- SEVSDIESRIAALRAL — lower, 1.15
- SEVSHIESRIAALRAA — the same, 7.79
- SEVSDIESRIAALRAI — higher, 17.25
- SEVLDIESRIAALRAA — higher, 9.47
- SEVSDIELRIAALRAA — lower, 4.11
- SEVSDITSRIAALRAA — lower, 1.11
- SEVSDIESRIAALIAA — lower, 3.61
- SEVSDIEQRIAALRAA — lower, 1.11
- SEVSDIESREAALRAA — lower, 3.89
- SEVVDIESRIAALRAA — higher, 12.32
- SEVSDIESRIAALRAV — lower, 1.51
- SEVADIESRIAALRAA — the same, 7.79

same assay, conditions: sheet S3.B_ProP-PD_pairs; bait USP8_MIT__P40818_1_142; ratio within the wild-type/mutant pair, larger over smaller averaged fraction (direction from fraction_wt and fraction_mut)

Point of comparison: SMVSDIESRIAALRAA, hit_pair_ratio 7.79. Against it:
- MDDDYEAYHPLFLSLL — higher, 19.88
- FEVSDIESRIAALRAA — lower, 3.72
- MDDDYEAYHSLFLLLL — lower, 4.48
- MDDDYEAYHSLKLSLL — higher, 30.72
- LEVSDIESRIAALRAA — higher, 16.71
- MDDDYEAYHQLFLSLL — higher, 337.92
- MDDDYEAYHSLFVSLL — higher, 37.55
- MDDDYEAYHSLFLALL — lower, 2.81
- MDDDYEAYHWLFLSLL — lower, 1.50
- MDDDYEAYHSPFLSLL — higher, 169.63
- MDDDYEYYHSLFLSLL — lower, 2.04
- SQVSDIESRIAALRAA — lower, 1.00
- SEPSDIESRIAALRAA — lower, 2.03
- EEVSDIESRIAALRAA — the same, 7.79
- MDDDYEAYHSLFLSRL — higher, 337.92
- QEVSDIESRIAALRAA — lower, 2.44
- MDDDYEAMHSLFLSLL — higher, 337.92
- MDDDYEAYNSLFLSLL — higher, 169.63
- SHVSDIESRIAALRAA — lower, 1.51
- WEVSDIESRIAALRAA — higher, 13.49
- MDDDYEAYHSLFISLL — lower, 5.63
- MDDDYEANHSLFLSLL — higher, 42.28
- MDDDYEAYHSMFLSLL — higher, 168.96
